{"source": "patent US7226783B1", "about": "“Vanillin production” (David Michael & Co., Inc., priority 1997, dated 2007)", "key": {"[1]": {"test_system": "alcohol dehydrogenase from Vanilla planifolia embryo culture (vanillyl alcohol dehydrogenase, VAD)", "assay": "Substrate specificity of vanillyl alcohol dehydrogenase (VAD)", "format": "biochemical", "settings": "for Activity with the compound as substrate, NADH: cofactor NADH; for Activity with the compound as substrate, NADPH: cofactor NADPH", "protocol": "We have purified and characterized the activity of VAD that catalyze the reduction of vanillin to vanillyl alcohol. The enzyme was identified as an NADH or NADPH-dependent alcohol dehydrogenase. The purification protocol was as set forth below.\nCrude enzyme extract: Tissue was homogenized in 0.05 M actetate-Na buffer pH 4.0 (in proportion, 1 g of the tissue and 5 ml of the buffer) in an ice bath, using Polytrone homogenizer, at 20,000 revolutions of the blade per min. The homogenate was centrifuged at 13000 g for 15 min at 4° C. and the supernatant served as the crude enzyme source.\nAmmonium sulfate fractionation and molecular sieving: Crude enzyme extract (100 ml) was supplied with ammonium sulfate in an ice bath up to 60% of saturation (44.4 g of Ammonium sulphate per 100 ml). The precipitate was centrifuged and discarded. The supernatant was supplied with ammonium sulfate up to 90% of saturation (total 64.6 g per 100 ml of crude extract). The precipitate was collected (10 min centrifugation at 10,000 g), dissolved in 7 ml of extraction buffer and subjected to molecular sieving at Sephacryl S-300 High Load Column (LKB Pharmacia) 2.6×60 cm, in 0.1 M pH 4.0 acetate-Na buffer. The flow rate was adjusted to 1 ml/min and 5 ml fractions were collected. The protein elution profile was monitored at 280 nm. Five fractions (of a total of 50) containing dehydrogenase activity (130–155 ml of the column eluate) were collected.\nThe column was developed with 0.5 M Tris/HCL buffer pH 7.4 in 0.0–1.0 M NaCl gradient (total gradient volume—70 ml) and 2.5 ml fractions were collected. Vanillyl alcohol dehydrogenase was released from the column between 0.3–0.4 M NaCl. Fractions containing VAD activity were dialysed overnight against 0.05 M caetate-Na buffer pH 4.0 and concentrated up to 50 times using Minicon concentrating filters (Amicon). […]"}, "[2]": {"test_system": "V. planifolia embryo culture", "assay": "Uptake of exogenously added vanillin and transformation to vanillyl alcohol in embryo culture", "format": "cell-based, Vanilla planifolia", "text": "FIG. 3. Graph showing uptake of exogenously added vanillin and its transformation to vanillyl alcohol by vanillyl alcohol dehydrogenase in V. planifolia embryo culture. V(T)=vanillin in tissue; V(M)=vanillin in medium; VAL(T)=vanillyl alcohol in tissue; VAL(M)=vanillyl alcohol in medium.\nSimilarly, vanilla embryo culture that can be elicited by various elicitors to produce vanillin accumulates vanillyl alcohol as a final product. It is important to state at this stage that all the intermediates in the pathway are found mainly as glucosides."}, "[3]": {"test_system": "p-hydroxybenzaldehyde synthase", "assay": "Substrate specificity of p-hydroxybenzaldehyde synthase (chain shortening enzyme), crude enzyme", "format": "biochemical, Vanilla planifolia", "settings": "crude enzyme, HPLC detection of product", "protocol": "Sterile plant material (2 g) 2–3 weeks after subculture, was homogenized in a cooled Potter glass homogenizer with 4 ml of 0.1 M HEPES buffer, pH 8.0, containing 10 mM DTT. The homogenate was next centrifuged at 4° C. at 15.000× g for 15 min. Resultant supernatant (4 ml) was filtered through Sephadex G-25 column (void volume 3–4 ml.) Equilibrated with Tris/HCL buffer pH7, containing 10 mM DTT. The column was washed with the same buffer and 2 ml fraction following the void volume was collected. This fraction was used as the crude enzyme source.\nThe p-HO-aldehyde synthase activity was determined in the following mixture:\ncrude enzyme extract: 10 μl\n(substrate=1.8 mM p-coumarate in 0.1 M Tris/HCl, pH 8.0 with 10 mM DTT)\nThe mixture was incubated for 10–60 min (for longer incubation times, the activity was not proportional with time) at 35° C. and next, the reaction stopped by addition of 200 μl of acidified methanol (10% acetic acid in methanol). The slurry was passed through 0.45 μm filter and the filtrate (50 μl) injected into HPLC Bio-sil 18 HL 90-5 column (Reversed phase, 250 mm×4.6 mm). […] The eluate was monitored at 280 nm and retention time of the reaction product was compared to retention time of the standard compounds (benzaldehyde, p-HO-benzaldehyde, vanillin, protocatechuic aldehyde, p-coumaric acid, caffeic acid, ferulic acid, coniferyl aldehyde). The results were quantified using LKB Bromma 2221 Integrator.\nAs a potential substrates for chain shortening enzyme the following compounds were tested: […]"}, "[4]": {"test_system": "Vanilla embryo culture", "assay": "Feeding vanilla embryo culture with vanillin precursors, HPLC analysis of metabolites", "format": "cell-based, Vanilla planifolia", "text": "We derived a scheme for the vanillin biosynthetic pathway by analysis of metabolites in cultured embryos and by experiments with feeding of precursors and intermediates. This scheme is shown in FIG. 1 and the experiments are described below.\nEmbryo cultures of Vanilla planifolia were established as described in Example 1. The procedures used to extract phenolics from the cultured embryo cells and to analyze the extracts by high pressure liquid chromatography (HPLC) were as described generally by Havkin-Frenkel et al., Plant Cell, Tissue and Organ Culture 45: 133–136 (1996).\nIn the extraction procedure, 3 ml of 0.05 M sodium acetate buffer, pH 5.5, was added to about 1 gram of fresh culture. Samples were placed in boiling water for three minutes, then chilled. The cells were next homogenized in a Polytron blender for 1 minute at medium speed. A β-glucosidase solution was added to the homogenized cells to give a final concentration of 0.2%. Each sample was then incubated at 37° C. for 5 hr. Next, 17 ml of 95% ethanol was added, after which incubation at 37° C. was continued for an additional 24 hrs. The extract was then filtered and the ethanol evaporated. The filtrate was extracted twice using ethyl acetate, then extracted twice with ethyl acetate acidified to pH 3 with HCl. The extracts were combined and the ethyl acetate evaporated. The residue was dissolved in 1 ml of acidified methanol and filtered with a 0.45 μm syringe filter for HPLC analysis.\nExtractions of metabolites from culture medium was similar to the cell extraction protocol. Five ml of spent medium was incubated in a β-glucosidase solution at 37° C. for 24 hrs. The medium was then extracted with ethyl acetate and the organic portions combined and evaporated, as for the cell extracts.\nMetabolite levels were measured with a Hewlett Packard 1090L or a Waters HPLC with a UV detector at 280 nm. The Waters HPLC was also equipped with a diode array detector to confirm the identities of the various intermediates, and the identities of the various intermediates were further confirmed by mass spectrometry. The column was a Supelco C-18 DB column of dimensions 250 mm×4.6 mm and a particle size of 5 μm. The mobile phase contained methanol and water, each of which was acidified with 1.25% acetic acid. The flow rate was 1 ml/min, with a solvent gradient as follows: […]\nResults of selected experiments in which precursors or elicitors were added to vanilla cultures are set forth below. These experiments were performed in accordance with the procedures set forth in Examples 1–4."}, "[5]": {"test_system": "V. planifolia tissue culture", "assay": "Bio-conversion of 3,4-dihydroxybenzaldehyde to vanillin and vanillyl alcohol in tissue culture", "format": "cell-based, Vanilla planifolia", "settings": "addition of 1–5 mM pro-ald", "protocol": "The following procedure was used for the bio-conversion of 3,4-dihydroxybenzaldehyde (“proaldehyde”) to vanillin and vanillyl alcohol in V. planifolia tissue culture. The medium used for cultures was G-medium as described above. Pro-ald solutions were prepared in G-medium, to final concentrations of 0.01 to 5 mM.\nCultures used for the bio-conversion were (1) clusters, (2) embryo culture, and (3) tissue homogenates of the above cultures. Cultures were of varying ages ranging from 0 to 1 month old. The cultures were allowed to remain under normal culture conditions for 0 to 15 days. As controls, untreated cultures were extracted and analyzed as described in Example 2.\nProaldehyde at different concentrations was added to the medium, either alone or in combination with the following treatments:\nBioreactor-grown cultures were used for the bio-conversions. Different kinds of impeller designs were used to increase or decrease shear stress on the cells prior to the addition of pro-ald."}}}
{"smiles": "COc1cc(C=O)ccc1O", "note": "[Vn, vanillin]", "values": [{"measurement": "substrate preference of VAD", "setting": "[1]", "result": "most preferred substrates"}, {"measurement": "Activity with the compound as substrate, NADH", "setting": "[1]", "result": 1.26, "unit": "nmoles · gfwt^−1 · min^−1"}, {"measurement": "Activity with the compound as substrate, NADPH", "setting": "[1]", "result": 0.97, "unit": "nmoles · gfwt^−1 · min^−1"}, {"measurement": "fate of compound applied to the growing medium of embryo culture", "setting": "[2]", "result": "rapid uptake and reduction of the applied compound to vanillyl alcohol"}]}
{"smiles": "COc1cc(/C=C/C=O)ccc1O", "note": "[coniferyl aldehyde, 4-HO-3-metoxycinnamyl aldehyde]", "values": [{"measurement": "Result: conversion of the compound as substrate to the expected chain-shortened product", "setting": "[3]", "result": "negative"}, {"measurement": "Activity with the compound as substrate, NADH", "setting": "[1]", "result": 0.00, "unit": "nmoles · gfwt^−1 · min^−1"}]}
{"smiles": "O=Cc1ccc(O)c(O)c1", "note": "[PRO-ALD, 3,4-dihydroxybenzaldehyde]", "values": [{"measurement": "fate of exogenously fed compound in cultured embryos", "setting": "[4]; feeding experiments, Example 2", "result": "rapid methylation and conversion to vanillin or vanillyl alcohol"}, {"measurement": "CA (p-coumaric acid) content of culture", "setting": "[4]; precursor fed at 1 mM", "result": 285, "unit": "mg/100 g dry wt."}, {"measurement": "HBA (p-hydroxybenzyl alcohol) content of culture", "setting": "[4]; precursor fed at 1 mM", "result": 8950, "unit": "mg/100 g dry wt."}, {"measurement": "PRO-ALD (3,4-dihydroxybenzaldehyde) content of culture", "setting": "[4]; precursor fed at 1 mM", "result": 433, "unit": "mg/100 g dry wt."}, {"measurement": "VN (vanillin) content of culture", "setting": "[4]; precursor fed at 1 mM", "result": 16.7, "unit": "mg/100 g dry wt."}, {"measurement": "VN ALC (vanillyl alcohol) content of culture", "setting": "[4]; precursor fed at 1 mM", "result": 286.8, "unit": "mg/100 g dry wt."}, {"measurement": "substrate preference of VAD", "setting": "[1]", "result": "most preferred substrates"}, {"measurement": "Activity with the compound as substrate, NADH", "setting": "[1]", "result": 1.89, "unit": "nmoles · gfwt^−1 · min^−1"}, {"measurement": "Activity with the compound as substrate, NADPH", "setting": "[1]", "result": 2.11, "unit": "nmoles · gfwt^−1 · min^−1"}, {"measurement": "increase of production of vanillin/vanillyl alcohol", "setting": "[5]", "result": "several hundred fold"}, {"measurement": "fate of compound applied to the growing medium of embryo culture", "setting": "[2]", "result": "accumulation of vannilyl alcohol"}]}
{"smiles": "O=C(O)/C=C/c1ccc(O)c(O)c1", "note": "[CAF, caffeic acid]", "values": [{"measurement": "CA (p-coumaric acid) content of culture", "setting": "[4]; precursor fed at 2 mM", "result": 189, "unit": "mg/100 g dry wt."}, {"measurement": "HBA (p-hydroxybenzyl alcohol) content of culture", "setting": "[4]; precursor fed at 2 mM", "result": 11350, "unit": "mg/100 g dry wt."}, {"measurement": "PRO-ALD (3,4-dihydroxybenzaldehyde) content of culture", "setting": "[4]; precursor fed at 2 mM", "result": 21, "unit": "mg/100 g dry wt."}, {"measurement": "VN (vanillin) content of culture", "setting": "[4]; precursor fed at 2 mM", "result": 0.5, "unit": "mg/100 g dry wt."}, {"measurement": "VN ALC (vanillyl alcohol) content of culture", "setting": "[4]; precursor fed at 2 mM", "result": 32, "unit": "mg/100 g dry wt."}, {"measurement": "Result: conversion of the compound as substrate to the expected chain-shortened product", "setting": "[3]", "result": "negative"}]}
